Calls of active or inactive are those of the source. No cut-off for these calls is given here.
Legend:
NCI/ADR-RES = experiment: Antiproliferative activity against human NCI/ADR-RES cells assessed as growth inhibition; format: functional, cell-based
SR = experiment: Antiproliferative activity against human SR cells assessed as growth inhibition; format: functional
[1] = Inhibition of DNAJB1-PKAcalpha (unknown origin) using biotinylated-peptide substrate CREB incubated for 45 mins in presence of ATP and cAMP by ELISA; design: species or system Homo sapiens
MOLT-4 = experiment: Antiproliferative activity against human MOLT-4 cells assessed as growth inhibition; format: functional
MDA-MB-468 = experiment: Antiproliferative activity against human MDA-MB-468 cells assessed as growth inhibition; format: functional, cell-based
LOX IMVI = experiment: Antiproliferative activity against human LOX IMVI cells assessed as growth inhibition; format: functional
OVCAR-4 = experiment: Antiproliferative activity against human OVCAR-4 cells assessed as growth inhibition; format: functional, cell-based
[2] = target: Dual specificity protein kinase CLK1 (Homo sapiens) (UniProt P49759); experiment: Inhibition of human CLK1 at 50 nM in presence of ATP by radiometric Hotspot kinase assay relative to control
Sequence of Dual specificity protein kinase CLK1 (Homo sapiens) (P49759 whole entry, looked up): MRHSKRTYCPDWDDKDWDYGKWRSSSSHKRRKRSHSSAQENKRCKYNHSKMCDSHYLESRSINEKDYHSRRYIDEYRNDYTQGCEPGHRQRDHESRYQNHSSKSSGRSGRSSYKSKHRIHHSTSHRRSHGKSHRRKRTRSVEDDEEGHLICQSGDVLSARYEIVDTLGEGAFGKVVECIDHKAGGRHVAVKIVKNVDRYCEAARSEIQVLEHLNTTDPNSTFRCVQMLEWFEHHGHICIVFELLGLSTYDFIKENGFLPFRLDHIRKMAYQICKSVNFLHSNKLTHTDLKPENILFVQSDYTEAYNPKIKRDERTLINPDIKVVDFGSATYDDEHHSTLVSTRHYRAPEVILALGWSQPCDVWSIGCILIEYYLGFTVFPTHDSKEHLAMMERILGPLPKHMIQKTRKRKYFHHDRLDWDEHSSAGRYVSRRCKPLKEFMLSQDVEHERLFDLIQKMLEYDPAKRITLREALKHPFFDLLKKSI

[3] = target: T1, cGMP-dependent protein kinase 1 (Homo sapiens) (UniProt Q13976); conditions: dose 50.0 nM
T1 sequence (whole entry): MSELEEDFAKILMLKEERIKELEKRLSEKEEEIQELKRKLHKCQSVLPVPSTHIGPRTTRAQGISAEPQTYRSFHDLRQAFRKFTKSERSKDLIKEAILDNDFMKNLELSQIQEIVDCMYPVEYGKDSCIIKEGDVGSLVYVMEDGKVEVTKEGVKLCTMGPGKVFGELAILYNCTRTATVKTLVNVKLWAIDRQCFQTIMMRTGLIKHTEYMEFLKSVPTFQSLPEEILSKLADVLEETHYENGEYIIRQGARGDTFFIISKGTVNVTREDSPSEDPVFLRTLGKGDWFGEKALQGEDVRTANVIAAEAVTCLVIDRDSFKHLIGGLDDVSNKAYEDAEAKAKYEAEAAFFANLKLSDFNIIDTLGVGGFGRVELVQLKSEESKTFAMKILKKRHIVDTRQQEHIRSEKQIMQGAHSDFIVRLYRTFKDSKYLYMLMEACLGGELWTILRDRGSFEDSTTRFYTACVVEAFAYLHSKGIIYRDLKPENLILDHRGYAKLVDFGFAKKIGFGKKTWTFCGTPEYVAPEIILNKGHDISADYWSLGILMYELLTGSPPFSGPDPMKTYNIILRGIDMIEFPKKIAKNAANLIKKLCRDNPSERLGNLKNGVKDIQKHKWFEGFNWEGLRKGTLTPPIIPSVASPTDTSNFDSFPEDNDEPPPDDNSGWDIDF
Description: Inhibition of human PKG1alpha at 50 nM in presence of ATP by radiometric Hotspot kinase assay

[4] = target: cAMP-dependent protein kinase catalytic subunit alpha (Homo sapiens) (UniProt P17612); conditions: dose 50.0 nM
Description: Inhibition of human PKAalpha at 50 nM in presence of ATP by radiometric Hotspot kinase assay relative to control

[5] = Inhibition of DNAJB1-PKAcalpha (unknown origin) overexpressed in mouse NIH/3T3 cells assessed as inhibition of CREB phosphorylation at Ser133 residue preincubated for 30 mins followed by forskolin addition and measured after 30 mins by fluorescence based multilabel reader analysis; format: cell-based; conditions: NIH3T3
Homo sapiens [6] = species: Homo sapiens; experiment: Induction of thermal stabilization of His-tagged DNAJB1-PKAcalpha (unknown origin) incubated for 15 min by differential scanning fluorometric analysis
Homo sapiens [7] = species: Homo sapiens; experiment: Induction of thermal stabilization of His-tagged DNAJB1-PKAcalpha (unknown origin) assessed as change in melting temperature incubated for 15 min by differential scanning fluorometric analysis
Albumin = Albumin (Homo sapiens, UniProt P02768); experiment: Binding affinity to human serum albumin assessed as protein binding at 10 uM by equilibrium dialysis technique relative to control; format: ADME; conditions: isolated protein
Sequence of Albumin (P02768 whole entry): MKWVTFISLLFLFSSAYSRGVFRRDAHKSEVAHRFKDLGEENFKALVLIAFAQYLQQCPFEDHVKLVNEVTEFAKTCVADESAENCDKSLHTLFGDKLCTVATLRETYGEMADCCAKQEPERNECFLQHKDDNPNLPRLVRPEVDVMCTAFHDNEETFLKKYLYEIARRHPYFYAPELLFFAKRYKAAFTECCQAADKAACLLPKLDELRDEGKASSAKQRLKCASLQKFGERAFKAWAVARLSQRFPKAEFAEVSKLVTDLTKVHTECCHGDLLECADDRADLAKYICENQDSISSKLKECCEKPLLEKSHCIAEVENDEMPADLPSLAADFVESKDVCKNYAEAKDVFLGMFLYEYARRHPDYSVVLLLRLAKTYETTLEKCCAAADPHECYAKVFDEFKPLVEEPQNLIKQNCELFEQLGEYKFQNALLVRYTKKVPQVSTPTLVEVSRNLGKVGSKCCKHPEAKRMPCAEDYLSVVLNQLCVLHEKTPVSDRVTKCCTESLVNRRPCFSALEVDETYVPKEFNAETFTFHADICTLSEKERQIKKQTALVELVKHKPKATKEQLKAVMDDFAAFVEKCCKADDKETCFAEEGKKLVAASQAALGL

[8] = target: cAMP-dependent protein kinase catalytic subunit beta (Homo sapiens) (UniProt P22694); experiment: Inhibition of human PKAbeta at 50 nM in presence of ATP by radiometric Hotspot kinase assay
[9] = target: Dual specificity protein kinase CLK2 (Homo sapiens) (UniProt P49760); experiment: Inhibition of human CLK2 at 50 nM in presence of ATP by radiometric Hotspot kinase assay relative to control
Sequence of Dual specificity protein kinase CLK2 (Homo sapiens) (P49760 whole entry, looked up): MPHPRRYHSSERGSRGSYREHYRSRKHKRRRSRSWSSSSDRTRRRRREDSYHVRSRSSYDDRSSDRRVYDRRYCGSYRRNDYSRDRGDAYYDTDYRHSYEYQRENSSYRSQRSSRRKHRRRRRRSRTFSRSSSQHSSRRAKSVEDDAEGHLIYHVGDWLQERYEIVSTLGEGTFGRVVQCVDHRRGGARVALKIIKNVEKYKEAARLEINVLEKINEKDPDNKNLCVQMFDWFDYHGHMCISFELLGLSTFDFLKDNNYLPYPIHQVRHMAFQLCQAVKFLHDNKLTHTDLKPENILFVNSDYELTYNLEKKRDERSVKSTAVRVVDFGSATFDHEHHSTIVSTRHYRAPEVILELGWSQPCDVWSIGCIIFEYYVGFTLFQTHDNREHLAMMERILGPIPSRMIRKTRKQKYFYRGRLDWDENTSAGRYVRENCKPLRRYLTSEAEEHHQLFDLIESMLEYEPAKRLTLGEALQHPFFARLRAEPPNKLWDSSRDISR

C1=C(c2ccnc3[nH]ccc23)SCCN1c1ncnc2sccc12
Activity (NCI/ADR-RES): inactive | Activity (SR): Active | IC50 [1]: 310 nM | Activity (MOLT-4): Active | Activity (MDA-MB-468): Active | GI50 (LOX IMVI): > 1000 nM | Activity (OVCAR-4): inactive

Cn1cncc1C1=CN(c2ccnc3[nH]ccc23)CCS1
inhibition [2]: Active | Activity (NCI/ADR-RES): inactive | Activity (SR): Active | IC50 [1]: 860 nM | Activity (MOLT-4): Active | Activity (MDA-MB-468): Active | inhibition [3]: Active | GI50 (LOX IMVI): > 1000 nM | inhibition [4]: 1.7% | Activity (OVCAR-4): inactive

C1=C(C2=CN(c3ncnc4[nH]ccc34)CCS2)CCNC1
Activity (NCI/ADR-RES): inactive | Activity (SR): Active | Activity (MOLT-4): Active | Activity (MDA-MB-468): Active | GI50 (LOX IMVI): > 1000 nM | Activity (OVCAR-4): inactive

C[C@@H]1C[C@@H](N)CN(C(=O)C2=CN(c3ncnc4[nH]ccc34)CCS2)C1
Activity (NCI/ADR-RES): inactive | Activity (SR): Active | IC50 [1]: 6 nM | Activity (MOLT-4): Active | Activity (MDA-MB-468): Active | GI50 (LOX IMVI): > 1000 nM | IC50 [5]: 2700 nM | Activity (OVCAR-4): inactive

Cn1cncc1C1=CN(c2ncnc3[nH]ccc23)CCS1
Activity (NCI/ADR-RES): inactive | Activity (SR): Active | IC50 [1]: 150 nM | Activity (MOLT-4): Active | Activity (MDA-MB-468): Active | GI50 (LOX IMVI): > 1000 nM | IC50 [5]: > 10000 nM | Activity (OVCAR-4): inactive

Cn1cnc(Br)c1C1=CN(c2ncnc3[nH]cnc23)CCS1
Activity (NCI/ADR-RES): inactive | Activity (Homo sapiens [6]): Dose-dependent-effect | Activity (SR): Active | ΔTm (Homo sapiens [7]): 3.1 °C | Activity (MOLT-4): Active | Activity (MDA-MB-468): Active | GI50 (LOX IMVI): > 1000 nM | Activity (OVCAR-4): inactive

C1=C(c2ccnc3[nH]ccc23)SCCN1c1ncnc2occc12
Activity (NCI/ADR-RES): inactive | Activity (SR): Active | IC50 [1]: 19 nM | Activity (MOLT-4): Active | Activity (MDA-MB-468): Active | GI50 (LOX IMVI): > 1000 nM | Activity (OVCAR-4): inactive

C1=C(c2ccnc3[nH]ccc23)SCCN1c1ccncn1
Activity (NCI/ADR-RES): inactive | Activity (Homo sapiens [6]): Dose-dependent-effect | Activity (SR): Active | IC50 [1]: 6.3 nM | ΔTm (Homo sapiens [7]): 7.9 °C | Activity (MOLT-4): Active | Activity (MDA-MB-468): Active | GI50 (LOX IMVI): > 1000 nM | IC50 [5]: 282 nM | Activity (OVCAR-4): inactive

Cc1cc(N2C=C(c3ccnc4[nH]ccc34)SCC2)ncn1
Activity (NCI/ADR-RES): inactive | Activity (SR): Active | IC50 [1]: 200 nM | Activity (MOLT-4): Active | Activity (MDA-MB-468): Active | GI50 (LOX IMVI): > 1000 nM | Activity (OVCAR-4): inactive

Cn1cc(C2=CN(c3ncnc4[nH]ccc34)CCS2)cn1
Activity (NCI/ADR-RES): inactive | Activity (SR): Active | IC50 [1]: 440 nM | Activity (MOLT-4): Active | Activity (MDA-MB-468): Active | GI50 (LOX IMVI): > 1000 nM | Activity (OVCAR-4): inactive

C[C@H]1CCN(C(=O)C2=CN(c3ncnc4[nH]ccc34)CCS2)C[C@@H]1N
IC50 [1]: 7 nM | IC50 [5]: 2500 nM

C[C@@]1(N)CCCN(C(=O)C2=CN(c3ccnc4[nH]ccc34)CCS2)C1
IC50 [1]: 16 nM | IC50 [5]: 3600 nM

N[C@H]1CCCN(C(=O)C2=CN(c3ncnc4[nH]ccc34)CCS2)C1
IC50 [1]: 81 nM

O=C(N[C@@H](c1ccccc1)[C@@H]1CCCN1)C1=CN(c2ncnc3[nH]ccc23)CCS1
IC50 [1]: 13 nM

CC(C)(C)c1cc(N2C=C(c3ccnc4[nH]ccc34)SCC2)ncn1
IC50 [1]: 7900 nM

CN(CCN)C(=O)C1=CN(c2ncnc3[nH]ccc23)CCS1
IC50 [1]: 370 nM

N[C@H]1CCCCN(C(=O)C2=CN(c3ncnc4[nH]ccc34)CCS2)C1
IC50 [1]: 570 nM

N[C@@H]1c2ccccc2C[C@@H]1NC(=O)C1=CN(c2ncnc3[nH]ccc23)CCS1
IC50 [1]: 410 nM

N[C@@H]1CCCN(C(=O)C2=CN(c3ncnc4[nH]ccc34)CCS2)C1
IC50 [1]: 8 nM

C[C@@H](N)CNC(=O)C1=CN(c2ncnc3[nH]ccc23)CCS1
IC50 [1]: 180 nM

C[C@@]1(N)CCCN(C(=O)C2=CN(c3ncnc4[nH]ccc34)CCS2)C1
Activity (NCI/ADR-RES): inactive | Activity (SR): Active | Activity (MOLT-4): Active | Activity (MDA-MB-468): Active | GI50 (LOX IMVI): > 1000 nM | IC50 [5]: 4400 nM | Activity (OVCAR-4): inactive

C[C@@]1(N)CCCN(C(=O)C2=CN(c3ncnc4[nH]cnc34)CCS2)C1
IC50 [1]: 62 nM

Cn1nccc1C1=CN(c2ncnc3[nH]ccc23)CCS1
IC50 [1]: > 10000 nM

C[C@]1(N)CCCN(C(=O)C2=CN(c3ncnc4[nH]cnc34)CCS2)C1
IC50 [1]: 2200 nM

C[C@@H]1CCN(C(=O)C2=CN(c3ncnc4[nH]ccc34)CCS2)C[C@@H]1N
IC50 [1]: 60 nM

O=C(C1=CN(c2ncnc3[nH]ccc23)CCS1)N1CCn2ccnc2C1
IC50 [1]: 230 nM

Cc1ncc(C2=CN(c3ncnc4[nH]ccc34)CCS2)o1
IC50 [1]: > 10000 nM

Cc1cc(N2C=C(c3ccnc4[nH]ccc34)SCC2)nc(N2CCCCC2)n1
IC50 [1]: > 10000 nM

Cc1ncoc1C1=CN(c2ncnc3[nH]cnc23)CCS1
IC50 [1]: 1400 nM

NC[C@H](NC(=O)C1=CN(c2ncnc3[nH]ccc23)CCS1)c1ccccc1
IC50 [1]: 110 nM

CN(C[C@@H]1CCCCN1)C(=O)C1=CN(c2ncnc3[nH]ccc23)CCS1
IC50 [1]: 1200 nM

O=C(N[C@H](c1ccccc1)[C@H]1CCCN1)C1=CN(c2ncnc3[nH]ccc23)CCS1
IC50 [1]: 82 nM

Cc1c[nH]c2nccc(N3C=C(C(=O)N4CCC[C@@H](N)C4)SCC3)c12
IC50 [1]: 37 nM

N[C@@H]1CCCC[C@H]1NC(=O)C1=CN(c2ncnc3[nH]ccc23)CCS1
IC50 [1]: 2300 nM

Cc1c[nH]c2ncnc(N3C=C(c4cncn4C)SCC3)c12
Activity (NCI/ADR-RES): inactive | Activity (SR): Active | IC50 [1]: 92 nM | Activity (MOLT-4): Active | Activity (MDA-MB-468): Active | GI50 (LOX IMVI): > 1000 nM | IC50 [5]: 8200 nM | Activity (OVCAR-4): inactive

C1=C(c2cccnc2)SCCN1c1ncnc2[nH]cnc12
IC50 [1]: > 10000 nM

Cn1cncc1C1=CN(c2ncnc3[nH]cnc23)CCS1
PB (Albumin): 98% | inhibition [2]: Active | inhibition [8]: Active | inhibition [9]: Active
